# Experimental data reported in patent US8815270B2, “Methods and compositions for treating ectoparasite infestation” (Piedmont Pharmaceuticals, LLC, priority 2002, dated 2014).
# Test system: adult body louse, Pediculous humanus humanus
# Description: In this embodiment, the effectiveness of pediculicidal materials in the formulation of Example 1 is examined against the adult body louse, Pediculous humanus humanus. But this procedure can be used to test the effectiveness of a composition against the head louse, fleas, ticks, or any ectoparasite. In the following description, “morbid” means that the louse is unable to move towards heat 1 h after treatment. The parasite is sick but not necessarily dying, and may recover to resume normal behavior within 24 hours. By “moribund” is meant the parasite is unable to move towards heat (and therefore food) 24 hours after treatment and is dying.
# Four replicates of 25 lice each, plus five control replicates were examined. A plastic or glass vial, screened at the bottom with 20-mesh was used as the dipping vessel. A plunger, made from a plastic rod, and a circular screen was fitted inside the vial.
# 25 adult lice of mixed sexes were placed in the bottom of a test container. A screened plunger was inserted to keep the lice from floating to the surface. The pediculicide material to be tested was placed in a 100-ml beaker and the beaker introduced into a waterbath maintained at 32° C. The test container was placed into the pediculicide in the 100-ml beaker and the lice kept under the pediculicide for 1, 4 or 10 minutes. The test container was removed at end of the desired dipping period. […]
smiles,measurement,value
"CCCCCCCCCCCCCC(=O)OC(C)C [isopropyl myristate, 1-methylethyltetradecanoate]",lice killed (mortality) after 1 hour,about 82%
same,mortality of lice after 24 hours,100%
